In a melting point compilation (Tetko et al.; mined from patent text by program, amines drawn as free bases though some values may be those of a salt):

Compound | melting point [°C]
CC(C)C(=O)NC[C@H]1CN(c2ccc3c(c2)CCCc2cnoc2-3)C(=O)O1 | 187 to 193
Cc1c(NC(=O)c2ccc(-c3ccc(F)cc3)cc2)ccc2cc(C(C)N3CCCCC3)cnc12 (centres undefined) | 168 to 170
N#Cc1cc(CC(=O)O)cc2c1NC(C(F)(F)F)CC2 (centres undefined) | 148 to 149
O=[N+]([O-])c1cc(Br)cc2c1[nH]c1ccc(Br)cc12 | 252 to 256
C[C@H]1CCCC(C)(C)[C@@H]1[C@H](O)c1ccc(Cl)c(Cl)c1 | 94.2 to 96.2
CC(C)(C)OC(=O)Nc1cc2cc(OCc3ccccc3)ccc2cc1OCc1ccccc1 | 179 to 182
CCC(=O)C1C(=O)CC(c2ccc(C3CC(=O)C(C(=O)CC)C(=O)C3)cc2)CC1=O (centres undefined) | 261
C=CC(=O)Oc1ccc(Cl)c2c(N(C)C)ncnc12 | 95 to 100
CC(=O)c1ccc(C(=O)c2ccc(O)c(CC(=O)O)c2)cc1 | 235
Cc1cnc(OCC(O)CNC(C)(C)C)c2cc(Cl)ccc12 (centres undefined) | 116 to 117
CCCCc1ccc(C(=O)NCc2c[nH]c(=S)n2[C@H]2CCc3c(F)cc(F)cc3C2)nc1 | 99 to 104
O=C1N(Cc2ccc(C(F)(F)F)o2)c2cccc(Cl)c2C12COc1cc3c(cc12)CCO3 (centres undefined) | 166 to 169
CCc1sc(-c2cc[nH]n2)c2c1C(=O)CC(C)(C)C2 | 152 to 155
CCCCc1nc2ccc(C3=NN4CCCC4C3)cc2c(=O)n1Cc1ccc(-c2ccccc2-c2nnn[nH]2)cc1 (centres undefined) | 126
CS(=O)c1ccc(CSc2nnc(-c3ccc4c(c3)CCO4)o2)cc1C(F)(F)F (centres undefined) | 177 to 178
O=c1[nH]c2ccccc2n1C1CCN(C[C@@H]2CO[C@@H](c3ccc(F)cc3)C2)CC1 (relative stereo) | 154 to 155
OC1CSC(Oc2cc(-c3ccc(F)nc3)ccc2Cl)C(O)C1O (centres undefined) | 185
Cc1ccc(SC(C#N)c2ccc(C(=O)c3cccs3)cc2)cc1 (centres undefined) | 124 to 126
CCNc1cc(-c2c[nH]c(S)n2)ccn1 | > 260
COc1ccc(N2CCOCC2)c2sc(-c3nc4ccc(C)nc4[nH]3)nc12 | 200 to 210
COc1ccc(CONC(=O)Cn2nnnc2S)cc1 | 167 to 168
CC(C)(C)OC(=O)N1CCN(c2nccs2)CC1 | 114 to 116

Compound | melting point [°C]
O=C(c1c[nH]c2cc(Oc3ccc(F)cc3)ccc12)C1CSC(c2cccnc2)N1 (centres undefined) | 189 to 191
CN1CC(CCCl)Oc2ccc(Cl)cc2C1=O (centres undefined) | 101 to 103
O=C(O)CC(Cc1ccccc1)NC(=O)C1Cc2ccccc2N1S(=O)(=O)c1ccc(-c2cccc(C(F)(F)F)c2)cc1 (centres undefined) | 78 to 82
Cc1ccccc1C1CCN(C(=O)CCC(=O)c2ccc3c(c2)CCNCC3)CC1 | 93 to 95
Cc1cc(C)c(N2CCCc3c2nn(C)c3Br)c(Cl)c1 | 106 to 107
COc1ccc(C(=O)c2ccc(F)cc2F)c(Cl)c1Cl | 139 to 141
CCOC(=O)c1cc(-c2ccc(Br)cc2)c(=O)n(Cc2ccc(Cl)cc2Cl)c1 | 152 to 154
CCOc1ccccc1C1(CC(=O)N2CCN(c3ccncc3)CC2)C(=O)N(S(=O)(=O)c2ccc(OC)cc2OC)c2ccc(Cl)cc21 (centres undefined) | 225
O=C(O)C(=NO)C(c1ccc(OCc2ccc3cc(F)ccc3n2)cc1)c1ccc(OCc2ccc3cc(F)ccc3n2)cc1 | 107
O=[N+]([O-])c1c(F)c(F)c(O)c(Cl)c1F | 107 to 109
CCCc1ccc2nc(C#N)c(S(N)(=O)=O)n2n1 | 237 to 244
O=C(CCS)NC1CCCCC1 | 73.5 to 75.5
CC1CCC2(C)C(=CCC3C4CC(Cl)C(=O)C4(C)CCC32)C1 (centres undefined) | 159 to 165
O=C1NC(=O)C(Nc2ccc(CCNC[C@H](O)COc3ccc(O)cc3)cc2)S1 (some centres undefined) | 165
Cc1nc2c(OC3SCC(O)C(O)C3O)cccc2n1C (centres undefined) | 153
COc1ccc(S(=O)(=O)N2c3ccc(Cl)cc3C(O)(c3ccccc3Cl)C2C(=O)N2CCN(C)CC2)cc1OC (centres undefined) | 120
N#CCCCC#Cc1cc(F)c2ncc(C(=O)NCc3ccc(Cl)cc3)c(O)c2c1 | 208 to 210
COc1ccc(CCC(=O)O)c(Cl)c1Cl | 141 to 143
CCOC(=O)C(CC(C)C)NC(=O)C(Cc1ccccc1)NC(=O)CNC(=O)CNC(=O)C(Cc1ccc(OCc2ccccc2)cc1)NC(=O)OC(C)(C)C (centres undefined) | 149 to 152
CCOC(=O)Nc1cc(C(=O)NC(C)C)c(Cl)cc1F | 127 to 130
Cc1ncn(Cc2ccc(N)cc2C(F)(F)F)c1C | 185 to 186
CC1(C)C(C=C2CCCC2)C1C(=O)OC(C#N)c1ccc(F)c(Oc2ccccc2)c1 (centres undefined) | 81

Compound | melting point [°C]
CCCOCc1cc(OC)c(-c2ccc(C[C@H](NC(=O)c3c(Cl)cccc3Cl)C(=O)O)cc2)c(OC)c1 | 183 to 186
CCC(C)Cc1c(-c2ccc(C(N)=S)cc2Cl)c(C)nc2ncnn12 (centres undefined) | 173 to 177
CCOC(=O)C(Cc1ccc(O)cc1)c1cc2cc(C#N)ccc2s1 (centres undefined) | 146 to 147
CCOC(=O)c1c(C(C)C)c(-c2ccc(F)cc2)cn1CC | 74 to 76
COC(=O)c1cc2ccc(SCc3ccc(OC)cc3)cc2nc1OC | 133 to 134
COc1ccc([N+](=O)[O-])c(C(=O)O)c1OC | 187 to 189
COc1cc2c(cc1C=NO)C(C)(C)CCC2(C)C | 182 to 183
c1cnc2c(N3CCC(N4CCN(c5cccc6[nH]ccc56)CC4)CC3)cccc2c1 | 256
CCOC(=O)c1cnc2c(I)cc(COC(C)=O)cc2c1O | 119 to 123
CCN1C(=O)C(C)(C)C(=O)N(C)c2cc(CN(CCn3ccc4sccc4c3=O)Cc3cnccc3C)ccc21 | 145 to 147
COC(=O)c1nc(CCl)n(-c2ccc(Cl)cc2C(=O)c2ccccc2)n1 | 132 to 134
Cc1cnc(C2=NC(C)(C(C)C)C(=O)N2)c(C(=O)C(=O)N(C)C)c1 (centres undefined) | 180 to 182
Cn1c(SCC(=O)C23CC4CC(CC(C4)C2)C3)nnc1-c1cccs1 | 156 to 157
BrCc1ccc2ncoc2c1 | 52 to 56
CC(C)n1cc(C(=O)Nc2nncs2)c2ccc(Cl)cc21 | 274 to 275
CSc1cc(C)nc(SC)c1NC(=O)CCCCCCSc1nc2ccccc2[nH]1 | 189 to 192
CCOC(C#N)Cc1ccc(O)c(N)c1 (centres undefined) | 114 to 115
COC(=O)N(C)CCCCCC(=O)OC[C@@H]1CC(c2ccc(-c3ccc(N4C[C@H](Cn5ccnn5)OC4=O)cc3F)cn2)=NO1 | 103
COCCOc1cc(N(C)S(=O)(=O)c2cccs2)c2[nH]c(C3=NCC(CCO)S3)cc2c1 (centres undefined) | 122 to 123
Cc1nc2cnccc2n1-c1ccc(CO)cc1 | 154 to 156
COC(=O)NNC(=O)Cl | 55 to 58
CCOC(=O)C=Cc1cccc(Cl)c1Cl | 69 to 70

The next lines start with the values.

melting point [°C] | Compound
146 to 148 | CCOC=NC1=C(C#N)C(c2ccc(F)c(Cl)c2)c2ccc3ccccc3c2O1 (centres undefined)
130 to 131 | CCOC(=O)c1cn(Cc2ccccc2)nc1NC(=O)NC(C)(C)C
88 to 89 | COC(=O)Oc1ccc(OC)c(C=O)c1
238 to 240 | CCCCCc1cc2c(nc(O)n2CCc2ccccc2)c(N)n1
133 to 135 | CCOC(=O)CCC(O)c1cnc2c(OC)cccc2c1Nc1ccccc1C (centres undefined)
133 to 136 | Cc1ccccc1OCC(=O)Nc1c(C)cccc1C(=O)O
127 to 130 | Cc1cn(-c2cc3nc(NN)c(=O)n(OCc4ccccc4)c3cc2C(F)(F)F)c(-c2ccccc2)n1
147 to 148 | O=C(c1cccnc1)c1cc2cc(Br)ccc2s1
159 to 161 | CC(C)(C)c1ccc(-c2nc3ccc([N+](=O)[O-])cc3c(=O)o2)cc1
116 to 120 | O=[N+]([O-])CC(SC(=S)N1CCCC1)c1ccccc1 (centres undefined)
152 | Cn1c(Sc2ccccc2)c(C=NO)c(=O)n(C)c1=O
98 to 100 | CCCCCCCCC(CCC)CC(=O)Nc1ccccc1 (centres undefined)
247 to 248 | CCc1cc(Nc2ccc(-c3ccccc3C#N)cc2)n2nccc2n1
198 to 201 | Cc1ccnc2c1C(=O)c1ccccc1C2=O
173 to 174 | CC(C)n1nc(-c2sc(NC(=O)c3cccc(Cl)c3)nc2-c2ccccc2)ccc1=O
72 | O=C(Cc1cc(F)ccc1[N+](=O)[O-])N1CCN(c2nsc3ccccc23)CC1
150 to 152 | CC1(C)CC(OC(=O)c2ccccc2)CC(C)(C)N1C#N

melting point [°C] | Compound
67 to 69 | O=Cc1cc(-c2ccccc2)no1
190 to 192 | CCOC(=O)c1nc(-c2cccc3ccccc23)[nH]c1-c1ccc(C)cc1
126 to 127 | CCOc1nn(Cc2ccc(OCc3nc(-c4ccccc4)oc3C)nc2)cc1CC(=O)O
158 to 160 | O=C1CCC2(CC1)CC(=O)c1ccccc1C2
79 to 83 | CCn1c2ccc3ccccc3c2c2cccc(C)c21
111 to 112 | Cc1c(NCC(C)(C)CNCC(O)COc2ccccc2)n(C)c(=O)n(C)c1=O (centres undefined)
188 to 190 | COc1cc(C=O)ccc1C1OC(CO)C(O)C(O)C1O (centres undefined)
170 to 171 | COc1cc(COc2nn(C)cc2C(C)=O)ccc1OCc1nc(-c2ccccc2)oc1C
332 to 335 | O=c1c2c([nH]c3nc(NCc4ccccc4)nn13)CCCS2
130 | COC(=O)C1Cc2c([nH]c3ccccc23)C(c2ccoc2)N1 (centres undefined)
> 280 | O=[N+]([O-])c1ccc2[nH]c(/C=C/c3ccncc3)nc2c1
180 to 181 | Cc1cc(-n2cnn(Cc3ccccc3)c2=O)sc1C(=O)NCc1cccnc1
73 to 76 | O=S(=O)(c1cc(Br)[nH]c1-c1ccc(Cl)cc1)C(F)(F)F
114 to 116 | CCC1C(=O)c2c(cc(OC)c(Cl)c2Cl)C1c1ccccc1 (centres undefined)
150 | CC1Cn2c(=O)[nH]c3cccc(c32)CN1CCc1ccccc1 (centres undefined)
135 to 137 | Cc1noc(NS(=O)(=O)c2c(Cc3ccc4c(c3)OCO4)sc3ccccc23)c1C
